Data set [1] addresses T1, CYP2A6 (Homo sapiens, UniProt P11509).
T1 sequence (P11509 1-494): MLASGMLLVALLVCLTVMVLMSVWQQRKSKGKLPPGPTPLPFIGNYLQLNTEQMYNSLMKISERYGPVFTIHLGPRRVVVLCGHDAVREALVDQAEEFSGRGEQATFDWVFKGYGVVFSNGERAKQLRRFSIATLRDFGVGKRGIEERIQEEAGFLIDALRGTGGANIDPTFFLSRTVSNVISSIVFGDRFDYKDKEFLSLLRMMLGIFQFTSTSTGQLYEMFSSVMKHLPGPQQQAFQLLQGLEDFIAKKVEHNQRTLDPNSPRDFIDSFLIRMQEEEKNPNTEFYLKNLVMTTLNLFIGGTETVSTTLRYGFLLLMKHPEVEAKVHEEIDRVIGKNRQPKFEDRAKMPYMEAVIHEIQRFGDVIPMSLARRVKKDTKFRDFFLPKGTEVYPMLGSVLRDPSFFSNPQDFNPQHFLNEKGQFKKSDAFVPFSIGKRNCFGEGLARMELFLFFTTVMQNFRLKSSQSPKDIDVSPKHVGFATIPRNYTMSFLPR
The note with it: 20 min, 60 μM.

Data set [2] relates to sample HH47 liver microsomes. Type of data set: in vitro ADME, human. The following applies: substrate flavone 60 μM, inhibitor 10 μM.
Data set [3] is classed as in vitro ADME. The following applies: human, human liver microsomes (sample HH54), probe flavone (60 µM), formation of diOHFM4 (3´4´diOHF). (Microsomes from liver hold many membrane-bound enzymes, among them those of drug oxidation.)
The subject of data set [4] is liver microsomes of human sample HH2. Description: Oxidation of flavonoids by human liver microsomes, sample HH2. Type of data set: in vitro ADME.
The target of the next data set is T2, CYP2B6 (Homo sapiens, UniProt P20813).
T2 sequence (P20813 1-491): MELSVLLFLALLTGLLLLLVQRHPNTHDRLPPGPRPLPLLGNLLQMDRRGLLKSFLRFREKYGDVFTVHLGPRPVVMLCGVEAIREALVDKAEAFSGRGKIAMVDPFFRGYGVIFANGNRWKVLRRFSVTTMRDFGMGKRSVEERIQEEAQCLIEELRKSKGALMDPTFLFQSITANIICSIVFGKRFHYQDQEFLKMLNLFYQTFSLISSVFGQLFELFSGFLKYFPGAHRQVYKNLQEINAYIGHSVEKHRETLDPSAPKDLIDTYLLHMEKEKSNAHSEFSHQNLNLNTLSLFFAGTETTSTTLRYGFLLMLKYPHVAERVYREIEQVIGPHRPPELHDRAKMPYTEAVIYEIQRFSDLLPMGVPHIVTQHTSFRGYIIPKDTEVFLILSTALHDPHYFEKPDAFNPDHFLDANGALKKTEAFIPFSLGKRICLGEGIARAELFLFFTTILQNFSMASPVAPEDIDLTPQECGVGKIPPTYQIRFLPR
It counts as in vitro ADME.

The conditions of data set [5]: guinea pigs, oral 30 mg of flavone, ref Das and Griffiths (1966), cited from earlier work.
For data set [6] the following is noted: rats, oral or intraperitoneal administration; ref Das and Griffiths (1966); cited from earlier work.
For another data set, the target named is CYP3A4 (Homo sapiens, UniProt P08684). The data set can be described thus: Oxidation of flavonoids by reconstituted recombinant P450, LC-MS/MS. Type of data set: in vitro ADME.
Sequence of CYP3A4 (P08684 whole entry): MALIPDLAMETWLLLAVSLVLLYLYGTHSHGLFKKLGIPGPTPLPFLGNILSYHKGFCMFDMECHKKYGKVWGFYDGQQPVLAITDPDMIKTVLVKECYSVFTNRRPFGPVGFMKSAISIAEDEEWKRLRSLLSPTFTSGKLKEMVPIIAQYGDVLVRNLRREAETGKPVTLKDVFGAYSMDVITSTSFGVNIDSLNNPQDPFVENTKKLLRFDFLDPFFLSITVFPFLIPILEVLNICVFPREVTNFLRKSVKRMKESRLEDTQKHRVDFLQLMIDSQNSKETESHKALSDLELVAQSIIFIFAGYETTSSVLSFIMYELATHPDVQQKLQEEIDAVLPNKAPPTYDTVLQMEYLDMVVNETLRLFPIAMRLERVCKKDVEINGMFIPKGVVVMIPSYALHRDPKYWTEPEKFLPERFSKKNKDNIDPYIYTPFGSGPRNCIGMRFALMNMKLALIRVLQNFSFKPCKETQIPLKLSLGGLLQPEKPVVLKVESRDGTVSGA
The target in data set [7] is T1, CYP2A6. Described as above.
A further data set addresses CYP2C9 (Homo sapiens, UniProt P11712). The data set is described as above. It counts as in vitro ADME.

Read-outs that look alike come from different tables or passages of the source.

By inhibition is commonly meant the relative decrease from the control value, in per cent. A higher inhibition goes with strong suppression.

Sequence of CYP2C9 (P11712 whole entry): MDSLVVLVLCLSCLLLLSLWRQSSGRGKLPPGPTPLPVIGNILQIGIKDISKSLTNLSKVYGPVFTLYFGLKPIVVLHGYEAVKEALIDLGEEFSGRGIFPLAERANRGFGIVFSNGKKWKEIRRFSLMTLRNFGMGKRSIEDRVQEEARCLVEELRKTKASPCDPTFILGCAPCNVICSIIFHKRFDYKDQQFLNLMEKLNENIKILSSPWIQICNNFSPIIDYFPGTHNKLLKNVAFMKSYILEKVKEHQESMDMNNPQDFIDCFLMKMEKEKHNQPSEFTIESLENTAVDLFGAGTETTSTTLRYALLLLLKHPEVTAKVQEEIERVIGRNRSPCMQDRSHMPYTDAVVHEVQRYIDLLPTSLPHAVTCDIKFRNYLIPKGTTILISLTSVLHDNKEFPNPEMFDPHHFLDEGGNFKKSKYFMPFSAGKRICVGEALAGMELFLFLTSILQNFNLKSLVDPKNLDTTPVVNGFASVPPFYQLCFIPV

Consider `COc1ccc(-c2cc(=O)c3ccccc3o2)cc1` [4´MeF, 4´-methoxyflavone], for which, on CYP2A6 [1], the “rate of O-demethylation to form M2 (4´OHF)” value is 0.029 min⁻¹ and the “rate of formation of M1 (3´4´diOHF)” value is reported as 0.0004 min^1.

For the compound `O=c1cc(-c2ccccc2)oc2c1ccc1ccccc12` [ANF, α-naphthoflavone], in [2], the “inhibition of formation of OHFM5, OHFM7, 6OHF, and OHFM12” value is “inhibited”. This compound displayed an inhibition at 20 min in [3] of 65%.

For `O=c1ccc2ccccc2o1` [coumarin], in [2], the “inhibition of formation of OHFM6 and OHFM9” value is given as “strongly inhibited”. In addition, the inhibition at 20 min in [3] stood at 75%.

Consider `O=c1cc(-c2ccccc2)oc2ccccc12` [flavone], for which the “production of OHFM6, OHFM9, and diOHFM4” value in [4] is reported as “very little”. Besides, the “activity in oxidizing flavone” value at CYP2B6, on CYP3A4 and on CYP2C9 was “not very active” throughout. Further, the “urinary excretion of 4´OHF” value in [5] (first day) is 622 µg; in data set [5] (fourth day), 0 µg; in [5] (second day), 309 µg; in data set [5] (third day) it was 15 µg. Also, the “3´4´diOHF found in urine” value in [6] is given as “small amounts”. Besides, the “activity in oxidizing to OHFM6 (4´OHF) and OHFM9 (3´OHF)” value at CYP2A6 [7] was “highly active”.

(Values after PMC8719450 (Xenobiotica; the fate of foreign compounds in biological …, 2021).)
